One test concerns the target BtsuOBP83a. The test can be described thus: Fluorescence competitive binding assay (1-NPN probe), recombinant BtsuOBP83a. More on the design: species or system Bactrocera tsuneonis. As to conditions: for Ki: relative dissociation constant calculated from IC50, competition with 1-NPN, ligand 4–32 μmol/L, pH 7.4, read-out: Ki (μM) OBP83a; for binding to BtsuOBP83a (in words): fluorescence competitive binding assay. From the text: (§1) Full-length sequences of BtsuOBP83a and BtsuOBP83b were amplified using specific primers (Supplementary Table S1). Purified PCR products were cloned into the pGEM-T vector (Promega) for sequencing verification. The confirmed target fragments were then subcloned into the pET-30a(+) expression vector (Sangon) using restriction enzymes (Supplementary Table S2) and T4 DNA ligase (Takara). Recombinant plasmids were transformed into Escherichia coli BL21 (DE3) competent cells (Tiangen). Bacterial cultures were grown to an OD600 of 0.6–0.8, after which protein expression was induced by adding isopropyl-β-D-thiogalactopyranoside (IPTG) (Solarbio) to a final concentration of 1 mM at different temperatures. Cells were harvested by centrifugation (5,000 × g, 15 minutes), lysed in phosphate-buffered saline buffer via sonication, and subjected to sodium dodecyl sulfate–polyacrylamide gel electrophoresis (SDS-PAGE) analysis after heat treatment. Large-scale protein expression was performed under optimized induction conditions. Soluble proteins in the supernatant were purified twice using Ni-affinity chromatography (GE Healthcare). His-tags were removed using enterokinase (Novoprotein). All purification steps were conducted at 4°C. The size and purity of OBP proteins were evaluated via SDS-PAGE, and protein concentrations were determined using the Bradford method.
(§2) The ligand-binding affinities of candidate OBPs were evaluated using fluorescence competitive binding assays performed on an F-380 Fluorescence Spectrophotometer (Tianfang), with modifications to the standard procedure. Purified OBP proteins were diluted to a final concentration of 2 μmol/L in 50 mmol/L Tris-HCl buffer (pH 7.4). The fluorescent probe N-phenyl-1-naphthylamine (1-NPN) and all candidate volatile ligands were dissolved in high-performance liquid chromatography–grade methanol at an initial concentration of 1 mmol/L. The binding constant between OBPs and 1-NPN was determined by recording emission spectra from 350 to 470 nm at an excitation wavelength of 337 nm. To establish binding saturation, titrations were conducted by sequentially adding 1-NPN to the protein solution, reaching final concentrations of 2–20 μmol/L in 2-μmol/L increments. Fluorescence intensity was measured after stabilization, and each measurement was performed in triplicate. […] Each experiment was conducted in triplicate. Dissociation constants (Ki) for the volatile ligands were calculated from the corresponding IC50 values using the following equation: […]

In a further test the target is BtsuOBP83b. The test can be described thus: Fluorescence competitive binding assay (1-NPN probe), recombinant BtsuOBP83b. To be noted: for Ki: relative dissociation constant calculated from IC50, competition with 1-NPN, ligand 4–32 μmol/L, pH 7.4, read-out: Ki (μM) OBP83b. Also noted: species or system Bactrocera tsuneonis.
Excerpt: as §1, §2

The source of these data is publication PMC12723664, “A high-quality chromosome-level genome assembly of the oligophagous fruit fly Bactrocera tsuneonis (Diptera: Tephritidae) and insights into its host specificity” (GigaScience, 2025).

The Ki is the dissociation constant of the complex between target and ligand, obtained from inhibition or displacement. For orientation: Kd means the constant that tells how readily two partners part at equilibrium.

Entries after “also recorded” stand apart in the source; their conditions may differ.

For the molecule `C#Cc1cccc(N)c1` [3-Ethynylaniline], the Ki on BtsuOBP83a and at BtsuOBP83b was more than 50 µM in each case.
Regarding `CCC/C=C/COC(=O)CCC` [trans-2-Hexenyl Butyrate], the Ki was more than 50 µM on BtsuOBP83a and 28.5 µM at BtsuOBP83b.
The matching figures for `C/C=C/C(=O)OCC` [Ethyl crotonate]: more than 50 µM and more than 50 µM.
The matching figures for `CC1=CCCC(C)(C)C12CCC(C)O2` (stereo not drawn) [Theaspirane]: more than 50 µM and more than 50 µM.
In the case of `c1ccc(Nc2cccc3ccccc23)cc1` [1-NPN, N-phenyl-1-naphthylamine, reference compound], the Kd at BtsuOBP83a (BtsuOBP83a 2 μmol/L, 50 mmol/L Tris-HCl pH 7.4, 1-NPN 2–20 μmol/L, Scatchard, read-out: dissociation constants (Kd) for 1-NPN) was 5.48 µM; at BtsuOBP83b (BtsuOBP83b 2 μmol/L, 50 mmol/L Tris-HCl pH 7.4, 1-NPN 2–20 μmol/L, Scatchard, read-out: dissociation constants (Kd) for 1-NPN) it was 6.92 µM.
`CCCCOC(=O)CC` [Butyl propionate]: the Ki at BtsuOBP83a and at BtsuOBP83b was more than 50 µM in each case.
Regarding `CC(C)c1ccccc1` [Cumene], the Ki on BtsuOBP83a and at BtsuOBP83b was more than 50 µM throughout.
`CC1=CCC2CC1C2(C)C` (stereo not drawn) [alpha-Pinene]: the Ki at BtsuOBP83a was 49.2 µM; on BtsuOBP83b it was more than 50 µM.
The matching figures for `CCCCCCCCO` [1-Octanol]: 36.4 µM and 39.1 µM.
With `CC1=CC[C@@H](C(C)(C)O)CC1` [(L)-alpha-terpineol], the Ki on BtsuOBP83a and on BtsuOBP83b was more than 50 µM each time.
`CCCC=CC=O` [2-Hexenal]: the figures for the Ki at BtsuOBP83a and at BtsuOBP83b were 42.7 µM and 31.9 µM, respectively.
With `CC(C)=CCC/C(C)=C\CO` [Nerol], the Ki on BtsuOBP83a and at BtsuOBP83b was more than 50 µM throughout.
For the molecule `CCc1ccccc1` [Ethylbenzene], the Ki at BtsuOBP83a and on BtsuOBP83b was more than 50 µM each time.
`CC1=C[C@@H]2C(=C(C)CC[C@H]2C(C)C)CC1` [(+)-delta-Cadinene]: the Ki at BtsuOBP83a and on BtsuOBP83b was more than 50 µM each time.
For the molecule `CCCCOC(=O)CCC` [Butyl butyrate], the inhibition constant Ki at BtsuOBP83a and at BtsuOBP83b was more than 50 µM each time.
Take `COc1cc(C)ccc1C(C)C` [2-Isopropyl-5-methylanisole]: the Ki at BtsuOBP83a and at BtsuOBP83b was more than 50 µM throughout.
As to `CCC/C=C/COC(=O)CC` [trans-2-Hexenyl propionate], the Ki at BtsuOBP83a and at BtsuOBP83b was more than 50 µM in each case.
Turning to `CCCCCC(=O)OCC` [Ethyl hexanoate], the Ki on BtsuOBP83a and on BtsuOBP83b was more than 50 µM throughout.
Turning to `CCCCCCCCOC(C)=O` [Octyl acetate], the Ki at BtsuOBP83a and at BtsuOBP83b was more than 50 µM in each case.
For `CCCCC(=O)OCC` [Ethyl valerate], the Ki at BtsuOBP83a and on BtsuOBP83b was more than 50 µM in each case.
As for `C=C1CC/C=C(/C)CC[C@@H]2[C@@H]1CC2(C)C` [Isocaryophyllene], the Ki at BtsuOBP83a and at BtsuOBP83b was more than 50 µM throughout.
In the case of `CC(=O)OC/C=C(/C)CCC=C(C)C` [Neryl acetate], the Ki at BtsuOBP83a and at BtsuOBP83b was more than 50 µM in each case.
Take `CCCCCCCCCCCCF` [1-Fluorododecane]: the Ki at BtsuOBP83a and at BtsuOBP83b was more than 50 µM each time.
In the case of `Cc1ccc(C(C)C)cc1O` [Carvacrol], the Ki on BtsuOBP83a and at BtsuOBP83b was more than 50 µM each time.
Turning to `CC(C)CCO` [Isopentyl alcohol], the Ki on BtsuOBP83a was more than 50 µM; at BtsuOBP83b it was 40.2 µM.
The matching figures for `CCCCCCCC(=O)OCCCC` [Butyl caprylate]: more than 50 µM and more than 50 µM.
The matching figures for `CC1=CCCC1` [1-Methylcyclopentene]: more than 50 µM and more than 50 µM.
The matching figures for `C=C1CC/C=C(\C)CC[C@@H]2[C@@H]1CC2(C)C` [beta-Caryophyllene]: more than 50 µM and more than 50 µM.
Regarding `CCOC(C)=O` [Ethylacetate], the values for the Ki at BtsuOBP83a and at BtsuOBP83b were more than 50 µM and 33 µM, respectively.
For `CCCCCC=O` [Hexanal] the same measures were 40.7 µM and 33.7 µM.
As for `CCCCCCO` [1-Hexanol], the Ki on BtsuOBP83a is more than 50 µM; at BtsuOBP83b, 31.8 µM.
On to `C=CC(C)(O)CC/C=C(\C)CCC=C(C)C` (stereo not drawn) [trans-Nerolidol], for which the “binding to BtsuOBP83a (in words)” value in the test on BtsuOBP83a was “selectively binds; also recorded: binds strongly; also recorded: strong binding affinity”. For the same molecule, the Ki is 9.36 µM on BtsuOBP83a and more than 50 µM at BtsuOBP83b.
Regarding `CC/C=C\CCOC(=O)CC` [cis-3-Hexenyl propionate], the Ki at BtsuOBP83a and on BtsuOBP83b was more than 50 µM in each case.
Take `CC/C=C\CCO` [cis-3-Hexen-1-ol]: the Ki was 32.1 µM on BtsuOBP83a and 31.8 µM on BtsuOBP83b.
For `CCCCOC(=O)C(C)CC` (stereo not drawn) [Butyl 2-methylbutyrate] the same measures were more than 50 µM and more than 50 µM.
Take `CC1=CC(=O)C(C(C)C)CC1` (stereo not drawn) [Piperitone]: in the test on BtsuOBP83a, the “binding to BtsuOBP83a (in words)” value is “selectively binds; also recorded: binds strongly; also recorded: strong binding affinity” and the Ki is 17.9 µM. Further, at BtsuOBP83b, the inhibition constant Ki is more than 50 µM.
As to `CCCCCC(=O)OCCC` [Propyl Hexanoate], the Ki on BtsuOBP83a and on BtsuOBP83b was more than 50 µM each time.
For `CCCCC/C=C/C(=O)OCC` [Ethyl trans-2-octenoate], the Ki at BtsuOBP83a is 46.3 µM; on BtsuOBP83b, more than 50 µM.
The matching figures for `CCCC(=O)OCCC(C)C` [Isoamyl butyrate]: more than 50 µM and more than 50 µM.
For `C=C(C)[C@H]1CC=C(C)C(=O)C1` [d-Carvone] the same measures were more than 50 µM and more than 50 µM.
The matching figures for `CCc1ccco1` [2-Ethylfuran]: more than 50 µM and more than 50 µM.
In the case of `C=Cc1ccccc1` [Styrene], the Ki on BtsuOBP83a and at BtsuOBP83b was more than 50 µM in each case.
In the case of `CC(=O)OCCC(C)C` [Isoamyl acetate], the Ki on BtsuOBP83a is more than 50 µM; on BtsuOBP83b it was 33.5 µM.
With `CCOC(=O)C(C)CC` (stereo not drawn) [Ethyl 2-methylbutyrate], the Ki on BtsuOBP83a and on BtsuOBP83b was more than 50 µM each time.
